≈ marks a conversion by molar mass, not a printed value. Entries after “also recorded” stand apart in the source; their conditions may differ. Read-outs that look alike come from different tables or passages of the source.
Assays:
Format in all cases: physicochemical
[1] = Solid storage stability test; details: for Original morphology / Original purity: original solid before storage; for chemical and physical stability after storage (summary): solid/25° C./60% RH/open/1 week and/or solid/60° C./closed container/1 week
Description: Each amorphous salt solid was weighed (two 2 mg samples were weighed for purity testing after solid storage stability study, and one 10 mg sample was weighed for XRPD testing after solid storage stability study) and placed in a glass vial. In a 25° C./60% RH solid storage stability test, the amorphous salt solid was placed in a 25° C./60% RH constant temperature and humidity chamber, and placed in the dark for 1 week (i.e. “solid/25° C./60% RH/open/1 week”), and in a 60° C. solid storage stability test, the amorphous salt solid was sealed in an oven at 60° C. and heated for 1 week in the dark (i.e. “solid/60° C./closed container/l week”). Then the sample was taken out for purity testing, crystal form detection and appearance observation, respectively.

[2] = Chemical and physical stability of the salts at the end of the preparation
Description: It is crucial for drug development whether the salts obtained as above have chemical and physical stability at the end of the preparation. The chemical and physical stability of the salts at the end of the preparation includes: […]

[3] = Solid solubility test (2 h and 24 h); details: for solubility at 2 h / solubility at 24 h: thermodynamic from solid; for XRPD measured at 2 h: state of sample / solid fraction; for solubility at 24 h: read-out: Solubility measured at 24 h; for XRPD measured at 24 h: 24 h test, state of sample
Description: samples were weighed for each amorphous salt solid (equivalent to 20 mg of free base), and 10 mL of the following solvents were respectively added: 0.1N HCl solution (pH 1.0), 50 mM phosphate buffer (pH 4.5), FeSSIF-V1 (pH 5.0), FaSSIF-V1 (pH 6.5) and SGF (pH 2.0), […] The suspension was then centrifuged at 37° C., the supernatant was measured for solubility by HPLC, and the solid fraction was measured for XRPD. The target solubility was at least 2 mg (based on free base)/mL.

[4] = Test BS1: solid/25° C./60% RH/open/1 week
[5] = listed as amorphous 2 eq. besylate salt
[6] = solid/60° C./closed container/1 week (Test BS1)
[7] = FaSSIF-V1 (pH 6.5) (Test ES4, partly printed ES1)
[8] = FaSSIF-V1 (pH 6.5) (Test ES4, partly printed ES1), 37° C., based on free base
[9] = Test ES1: 0.1N HCl solution (pH 1.0)
[10] = Test ES1: 0.1N HCl solution (pH 1.0), 37° C., based on free base
[11] = Test ES2: 50 mM phosphate buffer (pH 4.5)
[12] = Test ES2: 50 mM phosphate buffer (pH 4.5), 37° C., based on free base
[13] = Test ES3: FeSSIF-V1 (pH 5.0), 37° C., based on free base
[14] = Test ES5: SGF (pH 2.0), 37° C., based on free base
[15] = listed as amorphous 1 eq. maleate salt

SMILES	Purity [1, 4] [%]	Original morphology [1]	Original purity [1] [%]	Purity [1, 6] [%]	pH measured at 2 h [3, 7]	Solubility measured at 2 h [3, 8] [µg/mL]	XRPD measured at 2 h [3, 7]	pH measured at 2 h [3, 9]	Solubility measured at 2 h [3, 10] [µg/mL]	pH measured at 2 h [3, 11]	Solubility measured at 2 h [3, 12] [µg/mL]	XRPD measured at 2 h [3, 11]	pH measured at 2 h ([3]; Test ES3: FeSSIF-V1 (pH 5.0))	Solubility measured at 2 h [3, 13] [µg/mL]	XRPD measured at 2 h ([3]; Test ES3: FeSSIF-V1 (pH 5.0))	pH measured at 2 h ([3]; Test ES5: SGF (pH 2.0))	Solubility measured at 2 h [3, 14] [µg/mL]	XRPD measured at 2 h ([3]; Test ES5: SGF (pH 2.0))	XRPD measured at 2 h [3, 9]	other results
C=CC(=O)Nc1cc(Nc2ncnc(-c3cn(C)c4ccccc34)n2)c(OC)cc1N(C)CCN(C)C [Example 7]	99.6	amorphous	99.6	99.4	(6.1)	>2000	clear solution	(0.8)	1800 (≈ 3.6 mM)	(4.2)	>2000	clear solution	L(4.8)	>2000	clear solution	(1.7)	>2000	clear solution	–	chemical and physical stability after storage (summary) ([1]; listed as 2 eq. besylate salt): physically unstable; chemical and physical stability after storage (summary) [1, 5]: physically unstable; physical and chemical stability under storage (in words) ([1]; solid/25° C./60% RH/open/1 week, listed as amorphous 2 eq. besylate salt): slight color change and showed significant hygroscopicity (caking and fusion to a glassy state); physical and chemical stability under storage (in words) ([1]; solid/60° C./closed container/1 week, listed as amorphous 2 eq. besylate salt): good physical and chemical stability; chemical and physical stability at the end of the preparation ([2]; listed as 2 eq. besylate salt): chemically and physically stable; chemical and physical stability at the end of the preparation [2, 5]: chemically and physically stable; solubility at 2 h ([3]; 0.1N HCl solution, 37 °C, pH 1, simulated gastric fluid, Test ES1: 0.1N HCl solution (pH 1.0), 37° C., based on free base, read-out: Solubility measured at 2 h): < 2000 µg/mL; solubility at 2 h ([3]; 37 °C, not achieved in some solvents / greater in various solvents, read-out: solubility in solvents that mimic physiological conditions): < 2000 µg/mL
C=CC(=O)Nc1cc(Nc2ncnc(-c3cn(C)c4ccccc34)n2)c(OC)cc1N(C)CCN(C)C [Example 9]	99.7	amorphous	99.8	98.2	(6.1)	>2000	clear solution	(0.8)	>2000	(4.3)	>2000	clear solution	(4.8)	>2000	clear solution	(2.0)	–	clear solution	clear solution	chemical and physical stability after storage (summary) ([1]; listed as 1 eq. maleate salt): chemically unstable; also recorded: physically unstable; chemical and physical stability after storage (summary) [1, 15]: chemically unstable; also recorded: physically unstable; physical and chemical stability under storage (in words) ([1]; solid/25° C./60% RH/open/1 week, listed as amorphous 1 eq. maleate salt): slight color change and showed a certain hygroscopicity (agglomeration); decrease in purity ([1]; solid/60° C./closed container/1 week): about 2%; physical and chemical stability under storage (in words) ([1]; solid/60° C./closed container/1 week, listed as amorphous 1 eq. maleate salt): transformed from amorphous to a low crystallinity; chemical and physical stability at the end of the preparation ([2]; listed as 1 eq. maleate salt): chemically and physically stable; chemical and physical stability at the end of the preparation [2, 15]: chemically and physically stable; solubility at 2 h ([3]; SGF, 37 °C, pH 2, simulated gastric fluid, Test ES5: SGF (pH 2.0), 37° C., based on free base, read-out: Solubility measured at 2 h): > 2000 µg/mL
C=CC(=O)Nc1cc(Nc2ncnc(-c3cn(C)c4ccccc34)n2)c(OC)cc1N(C)CCN(C)C [Example 1]	99.6	amorphous	99.9	99.9	(6.8)	>2000	clear solution	(0.8)	>2000	(4.6)	–	clear solution	(4.9)	–	clear solution	(2.4)	>2000	clear solution	clear solution	physical and chemical stability under storage (in words) ([1]; solid/25° C./60% RH/open/1 week, listed as amorphous free base): good physical and chemical stability; physical and chemical stability under storage (in words) ([1]; solid/60° C./closed container/1 week, listed as amorphous free base): transformed from amorphous to a moderate crystallinity; chemical and physical stability at the end of the preparation ([2]; listed as amorphous free base): chemically and physically stable; solubility at 2 h ([3]; 50 mM phosphate buffer, 37 °C, pH 4.5, aqueous buffer, Test ES2: 50 mM phosphate buffer (pH 4.5), 37° C., based on free base, read-out: Solubility measured at 2 h): > 2000 µg/mL; solubility at 24 h ([3]; FaSSIF-V1, 37 °C, pH 6.5, fassif, Test ES4: FaSSIF-V1 (pH 6.5)): > 2000 µg/mL; solubility at 2 h ([3]; FeSSIF-V1, 37 °C, pH 5, fessif, Test ES3: FeSSIF-V1 (pH 5.0), 37° C., based on free base, read-out: Solubility measured at 2 h): > 2000 µg/mL; solubility at 24 h ([3]; FeSSIF-V1, 37 °C, pH 5, fessif, Test ES3: FeSSIF-V1 (pH 5.0)): > 2000 µg/mL; Solubility measured at 24 h ([3]; Test ES3: FeSSIF-V1 (pH 5.0)): >2000 µg/mL; pH measured at 24 h ([3]; Test ES3: FeSSIF-V1 (pH 5.0)): (5.0); XRPD measured at 24 h ([3]; Test ES3: FeSSIF-V1 (pH 5.0)): clear solution; Solubility measured at 24 h ([3]; Test ES4: FaSSIF-V1 (pH 6.5)): >2000 µg/mL; pH measured at 24 h ([3]; Test ES4: FaSSIF-V1 (pH 6.5)): (6.8); XRPD measured at 24 h ([3]; Test ES4: FaSSIF-V1 (pH 6.5)): clear solution
